{"source": "patent US20230233695A1", "about": "“MITHRAMYCIN A NANOPARTICLES FOR CANCER TREATMENT” (priority 2021, published 2023)", "key": {"HEK293.T": {"test_system": "HEK293.T", "experiment": "XTT cell viability assay, HEK293.T", "format": "cell-based", "conditions": "Homo sapiens, HEK-293T, 72 h, read-out: Viability IC50", "method": "(§1) Cell viability assays. For viability assays, four EWS:Fli1 fusion tumor cell lines (RD-ES, SK-ES-1, A673, and TC-71), one human embryonic kidney cell line (293.T), one ES tumor cell line with ERG fusion (CHLA-25), one fetal kidney cell line (HEK293.T), one hepatoblastoma cell line (HepG2), one chronic myeloid leukemia (MEG-01), and one acute monocytic leukemia (THP-1) cell line were plated at 5000 cells/well in 100 μL growth media in 96-well plates. After overnight incubation, 50 μL of growth media containing mithramycin A (MithA) (Cayman Chemical, Ann Arbor, Mi. Item Number 11434) or boronic acid-conjugated nano-MithA (MANP) (0.12 nM to 500 nM, final) or dimethyl sulfoxide (DMSO, 0.01% v/v) vehicle was added to the wells, and cell viability assays were performed 72 hours later. The cells were incubated with the activated-XTT solution (mixture of 2% final concentration of activation reagent with the XTT reagent) from ATCC (Catalog Number 30-1011K, XTT Cell Proliferation Assay Kit) for 3 hours prior to recording absorbance. The cell viability was determined by measuring the absorbance wavelength at 475 nm and reference wavelength at 650 nm on an Infinite M200 plate reader (Tecan Group, Ltd. Mannedorf, Switzerland). […]"}, "THP-1": {"test_system": "THP-1", "experiment": "XTT cell viability assay, THP-1", "format": "cell-based", "conditions": "Homo sapiens, THP-1, 72 h, read-out: Viability IC50", "method": "as §1"}, "Rad51": {"test_system": "Rad51", "experiment": "RT-qPCR, Rad51 mRNA expression", "format": "cell-based", "conditions": "10 nM, 3 cell lines tested", "method": "(§2) Assessment of mRNA expression by RT-qPCR. Total RNA was extracted from EWS:Fli1^+ cell cultures (TC-71, A673, and RD-ES) exposed to 10 nM of MithA/MANP (final concentration) or DMSO, (0.01% v/v) vehicle and blank polymer for 24 hours by the RNeasy technique with RNeasy columns with on-column DNAse I digestion (Qiagen, Valencia, Calif.) according to the manufacturer's instructions. The concentration and purity of the extracts were determined by UV absorbance at 230/260/280/320 nm wavelengths using a Tecan Infinite M200 spectrophotometer. Template cDNA was synthesized from […] of RNA extract by reverse-transcription using the Quantitect RT kit (Qiagen). Oligonucleotide primer sequences and more detailed information described in Supplemental Table S4). RT-PCR was performed using Quantitect SYBR-green qPCR reagents in a Mastercycler ep Realplex2 instrument (Eppendorf AG, Hamburg, Germany). […] Relative quantification of mRNA expression between MithA/MANP or vehicle/blank polymer treated cells were semi-quantitatively calculated by comparing the average threshold cycle (Ct) for the treated samples to the average Ct for untreated samples (Vehicle or blank polymer. Amplification efficiency was determined for each primer set, and the Pfaffl equation to determine relative fold change in gene expression. Beta-actin was used as the housekeeping gene for normalization."}, "Female C57BL/6J mice [1]": {"test_system": "Female C57BL/6J mice", "experiment": "In vivo toxicity: hematology", "set-up": "lymphocytes (% WBC) / granulocytes (% WBC): concentration or dose not given beside the values", "method": "(§3) In vivo toxicity of MithA and MANP. Cohorts of n=6-7 C57BL/6J females, 8-10 wko were randomized to receive either intravenous or intraperitoneal administration of saline control vehicle, blank polymer, MithA, or MANP as described in TABLES 2A and 2B. Body weight loss exceeding 20%, death, morbidity, changes in behavior, and any other sign of local or systemic toxicity were recorded.\nFor hematology, blood was collected 24 h after the last dose by venipuncture of the tail or mandibular veins. Blood (>100 uL) was transferred to Sarstedt EDTA tubes and held on ice until differential complete blood count was performed using Abaxis VetScan HM2 hematology analyzer (Union City, Calif.). Samples were analyzed within 8 hours of collection. Giemsa-stained blood smears were also obtained for manual differentiation of granulocytes, as the instrument is not able to discriminate neutrophils, eosinophils, or basophils due to inefficient lysis of mouse granulocytes by this system."}, "A673": {"test_system": "A673", "experiment": "XTT cell viability assay, A673", "format": "cell-based", "conditions": "Homo sapiens, A673, 72 h, read-out: Viability IC50", "method": "as §1"}, "Female C57BL/6J mice [2]": {"test_system": "Female C57BL/6J mice", "experiment": "In vivo toxicity: liver weight and histopathology", "method": "as §3\nThe liver was harvested for histopathological assessment, weighed, and fixed in 4% paraformaldehyde for 24 hours in the 4° C. and processed for and embedded in paraffin. After embedding, sections were cut at […] thickness and mounted on poly-L-lysine-coated glass slides. Sections were stained with Ehrlich's Hematoxylin and Eosin-Phloxine solutions, Periodic Acid-Schiff (+/− pretreatment with 1% Diastase for 30 min), or Hall's Bile stain with Picrosirius red counter stain. Slides were then dehydrated, cover slipped and imaged on Nikon E800 microscope for qualitative assessment of liver injury. In vivo toxicity of Mitha and MANP study design. (A) study design for supplemental figures. (B) study design for FIGS. 11A-11Q."}, "EWS:Fli1+ cells": {"test_system": "EWS:Fli1+ cells", "conditions": "previous study; read-out: average IC50 in EWS:Fli1 cell lines, previous study; cited from earlier work"}, "[3]": {"test_system": "TC-71 (EWS:Fli1+) xenograft tumor", "conditions": "1 mg/kg, five i.v. injections on alternating days", "description": "In vivo anti-tumor efficacy. […] On alternating days following inoculation, body weight was recorded, and tumor volume was measured using digital calipers. As each mouse achieved a measurable tumor volume of 200 mm^3, they were randomly allocated saline control vehicle, blank polymer (nano-formulation without MithA conjugation), 1 mg/kg MithA, or 1 mg/kg MANP (1 mg/kg eq. MithA) treatment groups until n=10/group was reached. Mice received 5 intravenous injections of the designated treatment via tail vein, given on alternating day schedule (e.g. M-W-F-Su-Tu). After treatment, tumors were allowed to grow to 1.5 cm^3, at which point the mice were euthanized by CO2 inhalation (FIG. 4.1.). The tumor volume was calculated by the equation: Tumor volume=(L×W^2)/2, in which L and W are the longest and shortest in tumor diameters (mm), respectively. Survival duration was calculated as the number of days for tumor volume to increase from 200 to 1500 mm^3.\nStatistical analysis. Microsoft Excel was used to organize data and obtain descriptive statistics (mean and standard deviation). […] For Western blot, tumor-bearing xenograft, and toxicity studies, one-way ANOVA with Bonferroni correction and multiple comparisons were performed using Prism 9. […] For xenograft studies, survival data were used to construct Kaplan-Meier plots and statistical significance of differences between treatment groups (n=10-11/group) was determined by the log-rank test. Differences were accepted as statistically significant when the p-value was ≤0.05."}, "NR0B1": {"test_system": "NR0B1", "experiment": "RT-qPCR, NR0B1 mRNA expression", "format": "cell-based", "conditions": "10 nM, 3 cell lines tested", "method": "as §2"}, "[4]": {"conditions": "5x2 mg/kg i.v., in comparison to saline vehicle"}, "[5]": {"conditions": "five doses 2 mg/kg (eq) on alternating days"}}, "data": [{"smiles": "CO[C@H](C(=O)[C@@H](O)[C@@H](C)O)[C@@H]1Cc2cc3cc(O[C@H]4C[C@@H](O[C@H]5C[C@@H](O)[C@H](O)[C@@H](C)O5)[C@H](O)[C@@H](C)O4)c(C)c(O)c3c(O)c2C(=O)[C@H]1O[C@H]1C[C@@H](O[C@H]2C[C@@H](O[C@H]3C[C@](C)(O)[C@H](O)[C@@H](C)O3)[C@@H](O)[C@@H](C)O2)[C@H](O)[C@@H](C)O1", "note": "[MithA, (2S,3S)-2-[(2S,4R,5R,6R)-4-[(2S,4R,5S,6R)-4-[(2S,4S,5R,6R)-4,5-dihydroxy-4,6-dimethyloxan-2-yl]oxy-5-hydroxy-6-methyloxan-2-yl]oxy-5-hydroxy-6-methyloxan-2-yl]oxy-3-[(1 S,3S,4R)-3,4-dihydroxy-1-methoxy-2-oxopentyl]-6-[(2S,4R,5R,6R)-4-[(2S,4R,5S,6R)-4,5-dihydroxy-6-methyloxan-2-yl]oxy-5-hydroxy-6-methyloxan-2-yl]oxy-8,9-dihydroxy-7-methyl-3,4-dihydro-2H-anthracen-1-one]", "values": [{"measurement": "IC50", "setting": "HEK293.T", "value": 90.4, "unit": "nM"}, {"measurement": "IC50", "setting": "THP-1", "value": 234, "unit": "nM"}, {"measurement": "Rad51 mRNA expression", "setting": "Rad51", "value": "unable to detect significant inhibition"}, {"measurement": "thrombocytopenia / platelet dysfunction", "setting": "Female C57BL/6J mice [1]; 5x2 mg/kg (eq.) i.v.", "value": "displayed thrombocytopenia"}, {"measurement": "decrease of plateletcrit (%)", "setting": "Female C57BL/6J mice [1]; [4]", "value": 3.4, "unit": "fold"}, {"measurement": "decrease of total platelet count", "setting": "Female C57BL/6J mice [1]; [4]", "value": 3.6, "unit": "fold"}, {"measurement": "red blood cell (RBC) parameters", "setting": "Female C57BL/6J mice [1]; 5x4 mg/kg i.p.", "value": "no significant changes"}, {"measurement": "total white blood cell (WBC) count", "setting": "Female C57BL/6J mice [1]; 5x4 mg/kg i.p., relative to controls", "value": "no significant difference"}, {"measurement": "granulocytes (% Gran)", "setting": "Female C57BL/6J mice [1]; 5x4 mg/kg i.p., vs saline (P=0.001)", "value": "increased"}, {"measurement": "lymphocytes (% LYM)", "setting": "Female C57BL/6J mice [1]; 5x4 mg/kg i.p., vs saline (p<0.0001)", "value": "decreased"}, {"measurement": "monocytes (% MON)", "setting": "Female C57BL/6J mice [1]; 5x4 mg/kg i.p., vs saline (p=0.0187)", "value": "increased"}, {"measurement": "lymphocytes (% WBC)", "setting": "Female C57BL/6J mice [1]; 5xmg/kg i.v., compared to saline vehicle", "value": "reduced"}, {"measurement": "granulocytes (% WBC)", "setting": "Female C57BL/6J mice [1]; 5xmg/kg i.v., compared to saline vehicle (p<0.0001)", "value": "increased"}, {"measurement": "RBC parameters", "setting": "Female C57BL/6J mice [1]; five i.v. injections on alternating days, between treatment groups", "value": "No changes"}, {"measurement": "plateletcrit", "setting": "Female C57BL/6J mice [1]; single i.p. 4 mg/kg, vs saline", "value": "significant reductions"}, {"measurement": "mean corpuscular hemoglobin", "setting": "Female C57BL/6J mice [1]; single i.p. 4 mg/kg, vs saline (p=0.002)", "value": "significant reductions"}, {"measurement": "total platelet count", "setting": "Female C57BL/6J mice [1]; single i.p. 4 mg/kg, vs saline (p=0.0251)", "value": "significant reductions"}, {"measurement": "IC50", "setting": "A673", "value": 12.4, "unit": "nM"}, {"measurement": "liver weight", "setting": "Female C57BL/6J mice [2]; 5 consecutive days i.p. 4 mg/kg, vs saline", "value": "liver weight reduction"}, {"measurement": "liver weight", "setting": "Female C57BL/6J mice [2]; 5x2 mg/kg i.v. alternating days", "value": "liver weight reduction"}, {"measurement": "liver histology", "setting": "Female C57BL/6J mice [2]; 5x4 mg/kg i.p.", "value": "periportal necrosis with central fatty degeneration, glycogen depletion and bile acid retention"}, {"measurement": "liver histology, Hall's bile stain", "setting": "Female C57BL/6J mice [2]; [5]", "value": "retention of bile in large vacuoles"}, {"measurement": "liver histology, Hematoxylin and Eosin stain", "setting": "Female C57BL/6J mice [2]; [5]", "value": "periportal hepatocellular necrosis and infiltrates of inflammatory cells, and distension of collecting ducts"}, {"measurement": "liver histology, Periodic Acid-Schiff (glycogen)", "setting": "Female C57BL/6J mice [2]; five doses 2 mg/kg on alternating days", "value": "glycogen depletion"}, {"measurement": "IC50", "setting": "EWS:Fli1+ cells", "value": 12, "unit": "nM"}, {"measurement": "body weight in tumor-bearing mice", "setting": "[3]", "value": "no loss of body weight was observed"}, {"measurement": "survival, range", "setting": "[3]", "value": "12 to 35", "unit": "days"}, {"measurement": "median survival", "setting": "[3]; days for tumor to grow from 200 to 1500 mm^3", "value": 20, "unit": "days"}, {"measurement": "NR0B1 mRNA expression", "setting": "NR0B1", "value": "unable to detect significant inhibition"}]}]}
